According to patent publication US20110065762A1, “METHODS OF USE OF ANTIVIRAL COMPOUNDS” (priority 2009, published 2011):

Target: T1, M2(S31) (Influenza A virus, UniProt P0DOF5)
T1 construct: expressed in transfected cells; host or cells: CHO cells (membrane preparation adsorbed to SSM sensors)
Test: Cell-free electrophysiology of M2 proton channels on solid supported membranes (IonGate SURFE2R screen)
Format: biochemical
Settings: 25 μM inhibitor, activation by pH jump 7.0 to 6.0, % inhibition=100×(1−I/Io); for inhibition at 25 µM: read-out: IonGate_M2(S31)_Screen % Inhibition at 25 μM

T1 sequence (P0DOF5 whole entry): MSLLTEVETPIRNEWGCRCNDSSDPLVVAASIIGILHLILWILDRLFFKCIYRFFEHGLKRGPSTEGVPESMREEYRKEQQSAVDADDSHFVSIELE

NCC1(O)C2CC3CC(C2)CC1C3 (stereo not drawn) [Example 1]
inhibition at 25 µM: 51 to 95%

OCCNC1C2CC3CC(C2)CC1C3 (stereo not drawn) [Example 2]
inhibition at 25 µM: 51 to 95%

NC1C2CC3CC1CC(O)(C3)C2 (stereo not drawn) [Example 3]
inhibition at 25 µM: 11 to 50%

OC12CC3CC(C1)C(n1ccnc1)C(C3)C2 (stereo not drawn) [Example 4, 4-imidazol-1-yladamantan-1-ol]
inhibition at 25 µM: 11 to 50%

NCC1C2CC3CC1CC(O)(C3)C2 (stereo not drawn) [Example 5]
inhibition at 25 µM: 11 to 50%

NCC1(O)C2CC3CC1CC(O)(C3)C2 (stereo not drawn) [Example 6]
inhibition at 25 µM: 11 to 50%

N#CC1C2CC3CC1CC(O)(C3)C2 (stereo not drawn) [Example 8]
IonGate_M2(S31)_Screen % Inhibition at 25 μM: B (11-50% (B))

N#CC1C2CC3CC1CC(O)(C3)C2 (stereo not drawn) [Example 9]
IonGate_M2(S31)_Screen % Inhibition at 25 μM: C (1-10% (C))

N=C(N)C1C2CC3CC(C2)CC1C3 (stereo not drawn) [Example 11]
inhibition at 25 µM: 51 to 95%

N#CC1C2CC3CC1CC(Cl)(C3)C2 (stereo not drawn) [Example 12]
inhibition at 25 µM: 11 to 50%

N=C(N)C1C2CC3CC1CC(Cl)(C3)C2 (stereo not drawn) [Example 14]
inhibition at 25 µM: 51 to 95%

NC1C2CC3CC1CC(Cl)(C3)C2 (stereo not drawn) [Example 15]
inhibition at 25 µM: 51 to 95%

N#CC1C2CC3CC(C2)CC1C3 (stereo not drawn) [Example 16]
inhibition at 25 µM: 51 to 95%

O=[N+]([O-])C1C2CC3CC1CC(Cl)(C3)C2 (stereo not drawn) [Example 18]
inhibition at 25 µM: 1 to 10%

NC1C2CC3CC(C2)CC1(O)C3 (stereo not drawn) [Example 19]
inhibition at 25 µM: 51 to 95%

O=[N+]([O-])C1C2CC3CC(C2)CC1(O)C3 (stereo not drawn) [Example 20]
inhibition at 25 µM: 11 to 50%

C1NC2C3CC4CC(C3)CC2(C4)O1 (stereo not drawn) [Example 21]
inhibition at 25 µM: 51 to 95%

NC1C2CC3CC1CC(S)(C3)C2 (stereo not drawn) [Example 22]
inhibition at 25 µM: 51 to 95%

N=C(N)NC1C2CC3CC1CC(Cl)(C3)C2 (stereo not drawn) [Example 23]
IonGate_M2(S31)_Screen % Inhibition at 25 μM: B (11-50% (B))

N=C(N)NC1C2CC3CC1CC(Cl)(C3)C2 (stereo not drawn) [Example 24]
IonGate_M2(S31)_Screen % Inhibition at 25 μM: A (51-95% (A))

NC1C2CC3CC(C2)CC1C3 (stereo not drawn) [Example 26]
inhibition at 25 µM: 11 to 50%

C1C2CC3CC1CC(C2)C1NC31 (stereo not drawn) [Example 27]
inhibition at 25 µM: 11 to 50%

O=C1C(=O)C2CC3CC(CC1C3)C2 [Example 28]
inhibition at 25 µM: 11 to 50%

O/N=C1\C(=N\O)C2CC3CC(CC1C3)C2 [Example 29]
inhibition at 25 µM: 11 to 50%

NC1C2CC3CC(C2)CC(C3)C1N (stereo not drawn) [Example 30]
inhibition at 25 µM: 51 to 95%

O=C1CC2CC3CC1CC(O)(C2)C3 (stereo not drawn) [Example 31]
inhibition at 25 µM: 11 to 50%

O/N=C1\CC2CC3CC1CC(O)(C2)C3 (stereo not drawn) [Example 32]
inhibition at 25 µM: 11 to 50%

NC1CC2CC3CC1CC(O)(C2)C3 (stereo not drawn) [Example 33]
inhibition at 25 µM: 11 to 50%

OC12CC3CC(C1)C1NC1C(C3)C2 (stereo not drawn) [Example 34]
inhibition at 25 µM: 11 to 50%

O=C1C(=O)C2CC3CC1CC(O)(C3)C2 [Example 35]
inhibition at 25 µM: 1 to 10%

OC1C2CC3CC(CC(O)(C3)C2)C1O (stereo not drawn) [Example 36]
inhibition at 25 µM: 1 to 10%

O=C1CC2CC3CC1CC(Cl)(C2)C3 (stereo not drawn) [Example 37]
inhibition at 25 µM: 11 to 50%

O/N=C1\CC2CC3CC1CC(Cl)(C2)C3 (stereo not drawn) [Example 38]
inhibition at 25 µM: 11 to 50%

NC1CC2CC3CC1CC(Cl)(C2)C3 (stereo not drawn) [Example 39]
inhibition at 25 µM: 11 to 50%

O=C1C(=O)C2CC3CC1CC(Cl)(C3)C2 [Example 40]
inhibition at 25 µM: 1 to 10%

OC1C2CC3CC(CC(Cl)(C3)C2)C1O (stereo not drawn) [Example 41]
inhibition at 25 µM: 1 to 10%

ON=C1C(=NO)C2CC3CC1CC(Cl)(C3)C2 [Example 42]
inhibition at 25 µM: 11 to 50%

NC1C2CC3CC(CC(Cl)(C3)C2)C1N (stereo not drawn) [Example 43]
inhibition at 25 µM: 1 to 10%

COC12CC3CC(C1)C(C#N)C(C3)C2 (stereo not drawn) [Example 44]
inhibition at 25 µM: 1 to 10%
